For data set [1], the system named is Prostate-specific Antigen (PSA) production in LNCaP cells. Briefly: PSA assay: inhibition of PSA production in LNCaP cells (ELISA). To be noted: Homo sapiens; for IC50: 72 h, R1881 1 ng/ml, three days, seven point assay. The data set is classed as cell-based. The method, then:
(§1) PSA Assay (Inhibition Test of the Compound of the Present Invention on Prostate-Specific Antigen (PSA) Production in Various Prostate Cancer Cells)
(§2) Androgen dependent LNCaP and 22RV1 cells were purchased from the American Type Culture Collection (ATCC, Manassas, Va.). These cells were grown in RPMI 1640 medium supplemented with 10% fetal bovine serum (FBS), 100 U/mL penicillin, 100 μg/mL streptomycin, and 0.25 μg/mL amphotericin B. The cells were maintained at 37° C. and 5% CO2. LNCaP cells between passage 20 and 35, and 22RV1 cells between passage 30 and 50 were used for experiments. LNCaP is a hormone sensitive cell line, while 22RV1 is a hormone refractory prostate cancer cell line, which derived from a primary prostate tumor. This cell line was isolated from a xenograft (CWR22R-2152) that was serially propagated in mice after castration-induced regression and relapse of the parental, androgen-dependent CWR xenograft. For the PSA assay, human prostate cancer cells LNCaP or 22RV1 were seeded in a 96-well plate at a concentration of 5000 cells/100 μl/well. On the following day, Methyltrienolone (R1881, AR agonist) (final concentration 1 ng/ml), test compounds or bicalutamide (Casodex®, AstraZeneca) (final concentration 0.005 to 20 μM) were added. Three days after the addition, the concentration of PSA in the supernatant of the culture solution was measured by ELISA. ELISAs for human PSA in culture medium were performed using the ultra-sensitive assay procedure and reagents in the Active™ PSA assay kit (Diagnostic Systems Laboratories Inc., Webster, Tex.). Culture medium and standards (200 μl/well) were incubated in antibody-coated plates for 2 h at room temperature on a Titer plate shaker at 500-600 rpm. Wells were then washed five times. The HRP conjugate was diluted 1:20 with assay buffer, and 100 μl was added to all wells. The plates were incubated for 30 min at room temperature on the shaker and washed as before, and 100 μl TMB (3,3′,5,5′-tetramethylbenzidine, 0.4 g/l) was added. The plates were incubated for 10 min on the shaker, and the reaction was terminated with 100 μl stop solution. The plates were read using a plate reader at 450 nm with a 650 nm reference filter. PSA levels were normalized for differences in growth of LNCaP or 22RV1 cells following various treatments as determined by the MTS assay. IC50 of PSA was calculated based on a seven point assay (concentrations of tested compound) and expressed as micromolar (uM). Results on 22RV1 cells are shown as percent inhibition at 2 micromolar (uM). ND means not determined
For orientation: An ELISA detects its analyte on a solid surface through an enzyme-linked reagent.

The next data set relates to 22RV1 cells. Kind of data set: Cell viability assay, 22RV1 cells. The data set is classed as cell-based, human. To be noted: for cytotoxicity at 2.5 µM: Homo sapiens, read-out: Inhibition of cell viability, 22RV1 % inhibition at 2.5 uM. As to the method: (§3) LNCaP and 22RV1 cells were maintained in RPMI 1640 medium supplemented with 10% fetal bovine serum (FBS), 100 U/mL penicillin, 100 μg/mL streptomycin, and 0.25 μg/mL amphotericin B, splitting cells when they reached 80-90% confluence. In order to test compounds, 10,000 cells/well were plated in 96 cell culture plates using 100 ul/well plating medium, cultured overnight at 37° C. in a cell culture incubator. After carefully remove plating medium, 80 ul/well of pre-warmed assay medium was added, followed by adding 10 ul/well test compounds or bicalutamide (final concentration from 20 uM to 0.1 uM), incubated at 37° C. for 30 minutes, then adding 10 ul/well freshly prepared Methyltrienolone (R1881, AR agonist) (final concentration 1 ng/ml) to each well, incubate at 37° C. for 48-hour. At the end of incubation, 20 μl MTT (2.5 mg/ml in PBS) was added to each well, and the cells were further incubated for 2 h at 37 C to allow a complete reaction between the dye and the enzyme mitochondrial dehydrogenase in the viable cells. After removal of the residual dye and medium, 100 μl dimethylsulfoxide was added to each well, and the absorbance at 570 nm was measured with an microplate reader. The fold induction over background by 1 nM R1881 in the absence of test compounds is standardized as 100% and experimental result is expressed as percentage of inhibition by testing compounds at 2.5 micromolar (uM).

Another data set relates to LNCaP cells. Briefly: Cell viability assay, LNCaP cells. It counts as cell-based. To be noted: Homo sapiens, read-out: Inhibition of cell viability, LNCaP % inhibition at 2.5 uM. As to the method: as §3
Data set [2] deals with Prostate-specific Antigen (PSA) production in 22RV1 cells. Briefly: PSA assay: inhibition of PSA production in 22RV1 cells (ELISA). To be noted: Homo sapiens, 72 h, R1881 1 ng/ml, three days. It counts as cell-based. As to the method: as §1
as §2, with “Results on 22RV1 cells are shown as percent inhibition at 2 micromolar (uM).” left out

Setting [3] is: 22RV1 cells, 2.5 uM, R1881 1 ng/ml, 48-hour.
[4] abbreviates: LNCaP cells, 2.5 uM, R1881 1 ng/ml, 48-hour.

This is an account of results in US8809550B2, “Androgen receptor antagonists and uses thereof” (priority 2009, dated 2014).

Read-outs that look alike come from different tables or passages of the source.

For `CC(O)(CS(=O)(=O)c1ccc(F)cc1)C(=O)Nc1ccc(C#N)c(C(F)(F)F)c1` (stereo not shown) [Bicalutamide, bicalutamide, reference compound], the inhibition (in general, how much of the control response was suppressed) at 1 µM in data set [1] (1 micromolar (summary text b205)) is 34%. The IC50 (in general, the midpoint of a concentration-inhibition curve) in data set [1] was 3100 nM. Moreover, in the data set on 22RV1 cells (setting [3]), the “Inhibition of cell viability, 22RV1 % inhibition at 2.5 uM” value is reported as below 10% and the cytotoxicity at 2.5 µM was below 10%. For the same compound, the cytotoxicity at 2.5 µM with LNCaP cells (setting [4]) was determined as 21%. This compound also had an inhibition at 2 µM in data set [2] of 18%.
The compound `CNC(=O)c1ccc(N2C(=S)N(c3ccc(C#N)cc3Cl)C(=O)C23CCC3)cc1F` [Example 1, 4-[7-(2-Chloro-4-cyano-phenyl)-8-oxo-6-thioxo-5,7-diaza-spiro[3.4]oct-5-yl]-2-fluoro-N-methyl-benzamide] gave an IC50 in data set [1] of 2400 nM. The cytotoxicity at 2.5 µM in the data set on 22RV1 cells (22Rv1, 48 h) stood at 31%; in the data set with LNCaP cells (LNCaP, 48 h) it was 70%. This compound yielded an inhibition at 2 µM in data set [2] of 48%.
In turn, `CNC(=O)c1ccc(N2C(=S)N(c3ccc(C#N)c(OC)c3)C(=O)C23CCC3)cc1F` [Example 2, 4-[7-(4-Cyano-3-methoxy-phenyl)-8-oxo-6-thioxo-5,7-diaza-spiro[3.4]oct-5-yl]-2-fluoro-N-methyl-benzamide] gave an IC50 in data set [1] of 450 nM. Besides, the cytotoxicity at 2.5 µM in the data set with 22RV1 cells (22Rv1, 48 h) was 41%; in the data set on LNCaP cells (LNCaP, 48 h), 59%. The same compound returned an inhibition at 2 µM in data set [2] of 47%.
For `CNC(=O)c1ccc(N2C(=S)N(c3ccc(C#N)c(Cl)c3F)C(=O)C23CCC3)cc1F` [Example 8, 4-[7-(3-Chloro-4-cyano-2-fluoro-phenyl)-8-oxo-6-thioxo-5,7-diaza-spiro[3.4]oct-5-yl]-2-fluoro-N-methyl-benzamide], in that order: 850 nM, 59%, 86% and 77%.
For `CNC(=O)c1ccc(N2C(=S)N(c3ccc(C#N)c(C(F)(F)F)c3F)C(=O)C23CCC3)cc1F` [Example 10, 4-[7-(4-Cyano-2-fluoro-3-trifluoromethyl-phenyl)-8-oxo-6-thioxo-5,7-diaza-spiro[3.4]oct-5-yl]-2-fluoro-N-methyl-benzamide], in that order: 380 nM, 69%, 91% and 78%.
For the compound `CNC(=O)c1ccc(N2C(=S)N(c3ccc(C#N)c(Cl)c3F)C(=O)C2(C)C)cc1F` [Example 11, 4-[3-(3-Chloro-4-cyano-2-fluoro-phenyl)-5,5-dimethyl-4-oxo-2-thioxo-imidazolidin-1-yl]-2-fluoro-N-methyl-benzamide], the IC50 in data set [1] was determined as 230 nM. Besides, the cytotoxicity at 2.5 µM in the data set with 22RV1 cells (22Rv1, 48 h) came out at 56%; in the data set with LNCaP cells (LNCaP, 48 h) it was 85%. The compound also displayed an inhibition at 2 µM in data set [2] of 81%.
In the case of `CC1(C)C(=O)N(c2ccc(C#N)c(Cl)c2F)C(=S)N1c1ccc(C#N)cc1` [Example 18, 4-(4,4-Dimethyl-5-oxo-2-thioxo-3-p-cyanophenyl-imidazolidin-1-yl)-3-fluoro-2-chloro-benzonitrile], half-maximal inhibition in data set [1] (IC50) required 92 nM. The cytotoxicity at 2.5 µM in the data set on 22RV1 cells (22Rv1, 48 h) came out at 57%; with LNCaP cells (LNCaP, 48 h), 91%. For the same compound, in data set [2], the inhibition at 2 µM was 89%.
`COc1c(C#N)ccc(N2C(=O)C(C)(C)N(c3ccc(F)cc3)C2=S)c1F` [Example 19, 3-Fluoro-4-[3-(4-fluoro-phenyl)-4,4-dimethyl-5-oxo-2-thioxo-imidazolidin-1-yl]-2-methoxy-benzonitrile] yielded an IC50 in data set [1] of 290 nM. The results for the cytotoxicity at 2.5 µM in the data set on 22RV1 cells (setting [3]) and in the data set on LNCaP cells (setting [4]) were 63% and 87%, respectively. Further, the inhibition at 2 µM in data set [2] worked out at 72%.
As to `COc1c(C#N)ccc(N2C(=O)C(C)(C)N(c3ccc(C)nc3)C2=S)c1F` [Example 20, 4-[4,4-Dimethyl-3-(6-methyl-pyridin-3-yl)-5-oxo-2-thioxo-imidazolidin-1-yl]-3-fluoro-2-methoxy-benzonitrile], half-maximal inhibition in data set [1] (IC50) required 280 nM. For the same compound, the cytotoxicity at 2.5 µM with 22RV1 cells (22Rv1, 48 h) came out at 44%; in the data set with LNCaP cells (LNCaP, 48 h), 68%. The same compound registered an inhibition at 2 µM in data set [2] of 69%.
In data set [1], `Cc1ccc(N2C(=S)N(c3ccc(C#N)c(C#N)c3)C(=O)C2(C)C)cc1` [Example 24, 4-(4,4-Dimethyl-5-oxo-2-thioxo-3-p-tolyl-imidazolidin-1-yl)-phthalonitrile] registered a 50% inhibitory concentration (IC50) of 200 nM. Besides, the cytotoxicity at 2.5 µM with 22RV1 cells (22Rv1, 48 h) worked out at 27%; in the data set with LNCaP cells (LNCaP, 48 h) it was 47%. This compound returned an inhibition at 2 µM in data set [2] of 91%.
Consider `COc1c(C#N)ccc(N2C(=O)C(C)(C)N(c3ccc(C#N)cc3)C2=S)c1F` [Example 32, 4-(4,4-Dimethyl-5-oxo-2-thioxo-3-p-cyanophenyl-imidazolidin-1-yl)-3-fluoro-2-methoxy-benzonitrile], for which, in data set [1], the IC50 stood at 120 nM. Further, the cytotoxicity at 2.5 µM in the data set with 22RV1 cells (setting [3]) came out at 64%; in the data set on LNCaP cells (setting [4]), 87%. In data set [2], this compound returned an inhibition at 2 µM of 88%.
